Structures can show the parent of a compound that is named as a salt. Where two headings read alike, the source gives them in different places.
Columns and labels:
[1] = molecular target: T1, SARS-CoV-2 PLpro (nsp3 1564–1878) (Severe acute respiratory syndrome coronavirus 2, UniProt P0DTD1); experiment: biochemical; parameters: FRET-quenched peptide (Pro3) cleavage by PLpro, 10 min pre-incubation, slope over 20 min, normalised to no-compound control; conditions: low concentration screen, read-out: % of control remaining
[2] = molecular target: T1, SARS-CoV-2 PLpro (nsp3 1564–1878); experiment: biochemical; parameters: FRET-quenched peptide (Pro3) cleavage by PLpro, 10 min pre-incubation, slope over 20 min, normalised to no-compound control; conditions: high concentration screen, read-out: % of control remaining

With `COc1ccc2[nH]cc(C3=CCNCC3)c2c1` [RU 24969] the remaining activity at 1.25 µM ([1]; Well no.=7997) was 104% and the remaining activity at 3.75 µM ([2]; Well no.=7997) was 102%.
For `CC[C@@H](C)Nc1cc(C(=O)N[C@H]2C[C@H]3CC[C@@H](C2)N3c2ccc(C(=O)C3CC3)cn2)c(C)cc1C(N)=O` [XL888], the remaining activity at 1.25 µM ([1]; Well no.=8982) was 90.5% and the remaining activity at 3.75 µM ([2]; Well no.=8982) was 93.8%.
In the case of `COC(=O)C[C@](O)(CCC(C)(C)O)C(=O)O[C@@H]1C(OC)=C[C@]23CCCN2CCc2cc4c(cc2[C@H]13)OCO4` [Harringtonine], the remaining activity at 1.25 µM ([1]; Well no.=3615) is reported as 105% and the remaining activity at 3.75 µM ([2]; Well no.=3615) is reported as 103%.
In the case of `CC1(C)O[C@@H]2C[C@H]3[C@@H]4C[C@H](F)C5=CC(=O)C=C[C@]5(C)[C@@]4(F)[C@@H](O)C[C@]3(C)[C@]2(C(=O)CO)O1` [Fluocinolone (Acetonide)], the remaining activity at 1.25 µM ([1]; Well no.=6667) is reported as 108% and the remaining activity at 3.75 µM ([2]; Well no.=6667) is reported as 111%.
For `O=C(O)Cc1ccccc1O` [2-Hydroxyphenylacetic acid], the remaining activity at 1.25 µM ([1]; Well no.=6307) was 104% and the remaining activity at 3.75 µM ([2]; Well no.=6307) was 107%.
With `Cc1nc(C(=O)NCC(=O)O)c(O)c2ccc(Oc3ccccc3)cc12` [FG-4592] the remaining activity at 1.25 µM ([1]; Well no.=4995) was 102% and the remaining activity at 3.75 µM ([2]; Well no.=4995) was 105%.
`CC(C)N(CCC(=O)c1ccc2ccccc2c1)Cc1ccccc1` [ZM39923 (hydrochloride)] was tested, and the remaining activity at 1.25 µM ([1]; Well no.=8170) was 104% and the remaining activity at 3.75 µM ([2]; Well no.=8170) was 98%.
Compound `OCCOCCN1CCN(Cc2cccc(Oc3ccccc3)c2)CC1` [ZK756326 (dihydrochloride)] has a remaining activity at 1.25 µM ([1]; Well no.=6178) of 99.6%, a remaining activity at 1.25 µM ([1]; Well no.=8117) of 104% and a remaining activity at 3.75 µM ([2]; Well no.=6178) of 101%.
Compound `C=CCc1cccc(/C=N/NC(=O)CN2CCN(Cc3ccccc3)CC2)c1O` [PAC-1] has a remaining activity at 1.25 µM ([1]; Well no.=4697) of 103%, a remaining activity at 1.25 µM ([1]; Well no.=6200) of 107% and a remaining activity at 3.75 µM ([2]; Well no.=4697) of 101%. For the same compound, the remaining activity at 3.75 µM ([2]; Well no.=6200) was 93.7%.
Compound `N#C/C(=C\c1ccc(O)c(O)c1)C(=O)NCCCc1ccccc1` [Tyrphostin AG 555] has a remaining activity at 1.25 µM ([1]; Well no.=1337) of 101% and a remaining activity at 3.75 µM ([2]; Well no.=1337) of 98.7%.
Work on `COc1cc(C(=O)c2ccc3ncccc3c2)cc(OC)c1OC` [quinolin-6-yl(3,4,5-trimethoxyphenyl)methanone] yielded a remaining activity at 1.25 µM ([1]; Well no.=6127) of 99.8% and a remaining activity at 3.75 µM ([2]; Well no.=6127) of 97.9%.
Compound `CCc1cncnc1N1CCN(Cc2nc3ccc(C(F)(F)F)cc3[nH]2)CC1` [PF-4708671] has a remaining activity at 1.25 µM ([1]; Well no.=4804) of 97% and a remaining activity at 3.75 µM ([2]; Well no.=4804) of 94.4%.
`COc1cc2c(cc1OC)[C@H]1CC(=O)[C@H](CC(C)C)CN1CC2` (racemic) [Tetrabenazine (Racemate)] showed a remaining activity at 1.25 µM ([1]; Well no.=8692) of 95.2% and a remaining activity at 3.75 µM ([2]; Well no.=8692) of 93.1%.
With `CN[C@@H]1C[C@@H](c2ccc(Cl)c(Cl)c2)c2ccccc21` [Indatraline hydrochloride] the remaining activity at 1.25 µM ([1]; Well no.=969) was 106% and the remaining activity at 3.75 µM ([2]; Well no.=969) was 106%.
`Nc1ccn([C@H]2CC[C@@H](CO)O2)c(=O)n1` [Zalcitabine] showed a remaining activity at 1.25 µM ([1]; Well no.=7856) of 92.9% and a remaining activity at 3.75 µM ([2]; Well no.=7856) of 98.9%.
For `CCCC(=O)OCC[N+](C)(C)C` [Butyrylcholine], the remaining activity at 1.25 µM ([1]; Well no.=1738) was 103% and the remaining activity at 3.75 µM ([2]; Well no.=1738) was 100%.
`CCOc1ccc(C(Nc2ccccn2)c2ccc3ccc(C)nc3c2O)cc1C` (stereo not shown) [HLM006474] was tested, and the remaining activity at 1.25 µM ([1]; Well no.=5926) was 104% and the remaining activity at 3.75 µM ([2]; Well no.=5926) was 100%.
In the case of `CCN(C(=O)c1c(O)c2c(Cl)cccc2n(C)c1=O)c1ccccc1` [Laquinimod (ABR-215062)], the remaining activity at 1.25 µM ([1]; Well no.=4745) is reported as 105% and the remaining activity at 3.75 µM ([2]; Well no.=4745) is reported as 107%.
`CN(C)CCSSCCNC(=O)C1CCN(C(=O)CSc2ccc(Cl)cc2)CC1` [6H05 (trifluoroacetate)] was tested, and the remaining activity at 1.25 µM ([1]; Well no.=6658) was 103% and the remaining activity at 3.75 µM ([2]; Well no.=6658) was 106%.
`CCCCOc1c(C(=O)c2c(F)cc(C)cc2F)c[nH]c2nncc1-2` [BMS-265246] gave a remaining activity at 1.25 µM ([1]; Well no.=5010) of 95.8% and a remaining activity at 3.75 µM ([2]; Well no.=5010) of 96.6%.
`Cc1nccc2c1[nH]c1ccccc12` [Harmane] showed a remaining activity at 1.25 µM ([1]; Well no.=612) of 98.8%, a remaining activity at 1.25 µM ([1]; Well no.=3593) of 101% and a remaining activity at 3.75 µM ([2]; Well no.=612) of 92%. It also gave a remaining activity at 3.75 µM ([2]; Well no.=3593) of 102%.
Compound `NCCCCCCCCCCN` [1,10-Diaminodecane] has a remaining activity at 1.25 µM ([1]; Well no.=642) of 94.7% and a remaining activity at 3.75 µM ([2]; Well no.=642) of 91.7%.
`Nc1nc(Nc2ccc(S(N)(=O)=O)cc2)nn1C(=O)c1c(F)cccc1F` [Aurora Kinase/Cdk Inhibitor] showed a remaining activity at 1.25 µM ([1]; Well no.=2356) of 98.5% and a remaining activity at 3.75 µM ([2]; Well no.=2356) of 100%.
Work on `CN1[C@@H]2CC[C@H]1C[C@@H](OC(=O)C(CO)c1ccccc1)C2` (stereo partly shown) [Atropine sulfate] yielded a remaining activity at 1.25 µM ([1]; Well no.=197) of 99.5%, a remaining activity at 1.25 µM ([1]; Well no.=3238) of 102% and a remaining activity at 3.75 µM ([2]; Well no.=3238) of 102%.
Work on `CCN(Cc1ccccc1)C(=O)Cn1c(=O)n(C)c2cnc(-c3ccccc3)nc21` [XBD173] yielded a remaining activity at 1.25 µM ([1]; Well no.=6053) of 102% and a remaining activity at 3.75 µM ([2]; Well no.=6053) of 100%.
With `CC(C)NCC(O)COc1ccc(COCCOC(C)C)cc1` (stereo not shown) [Bisoprolol] the remaining activity at 1.25 µM ([1]; Well no.=5109) was 96.8% and the remaining activity at 3.75 µM ([2]; Well no.=5109) was 98.6%.
`COc1cc2c(cc1Cc1cccc(Cl)c1F)c(=O)c(C(=O)O)cn2[C@H](CO)C(C)C` [Elvitegravir (GS-9137)] was tested, and the remaining activity at 1.25 µM ([1]; Well no.=5008) was 99.3% and the remaining activity at 3.75 µM ([2]; Well no.=5008) was 101%.
`N#Cc1cc2nc(O)c(O)nc2cc1[N+](=O)[O-]` [CNQX disodium] gave a remaining activity at 1.25 µM ([1]; Well no.=681) of 101% and a remaining activity at 3.75 µM ([2]; Well no.=681) of 102%.
`Cc1ccc(S(=O)(=O)NC(=O)NN2CC3CCC[C@@H]3C2)cc1` (stereo in doubt) [Gliclazide] showed a remaining activity at 1.25 µM ([1]; Well no.=2176) of 101% and a remaining activity at 3.75 µM ([2]; Well no.=2176) of 102%.
`O=C(C[S+]([O-])Cc1ccco1)NC/C=C\COc1cc(CN2CCCCC2)ccn1` (stereo not shown) [Lafutidine] was tested, and the remaining activity at 1.25 µM ([1]; Well no.=4722) was 93.3%, the remaining activity at 1.25 µM ([1]; Well no.=7581) was 90.1% and the remaining activity at 3.75 µM ([2]; Well no.=4722) was 95%. It also gave a remaining activity at 3.75 µM ([2]; Well no.=7581) of 90.4%.
`C=CCCCCCCCCC(=O)O` [10-Undecenoic acid] was tested, and the remaining activity at 1.25 µM ([1]; Well no.=4254) was 99% and the remaining activity at 3.75 µM ([2]; Well no.=4254) was 91.9%.
`C[C@H]1c2cccc(O)c2C(=O)C2=C(O)[C@]3(O)C(=O)C(C(N)=O)=C(O)[C@@H](N(C)C)[C@@H]3[C@@H](O)[C@@H]21` [Doxycycline hydrochloride] gave a remaining activity at 1.25 µM ([1]; Well no.=396) of 105% and a remaining activity at 3.75 µM ([2]; Well no.=396) of 108%.
With `CCNC1(C(N)=O)CCN(c2ncnc3c2nc(-c2ccccc2Cl)n3-c2ccc(Cl)cc2)CC1` [Otenabant (CP-945598) HCl] the remaining activity at 1.25 µM ([1]; Well no.=8494) was 103% and the remaining activity at 3.75 µM ([2]; Well no.=8494) was 108%.
In the case of `CC(C)NNC(=O)c1ccncc1` [Iproniazid], the remaining activity at 1.25 µM ([1]; Well no.=2048) is reported as 94.9% and the remaining activity at 3.75 µM ([2]; Well no.=2048) is reported as 96.1%.

From publication PMC8286840, “Identifying SARS-CoV-2 antiviral compounds by screening for small molecule inhibitors of Nsp3 papain-like protease” (Biochemical Journal, 2021)
